Measured values from ChEMBL document CHEMBL1134911, “Nodulisporic acid B, B1, and B2: a series of 1'-deoxy-nodulisporic acids from Nodulisporium sp” (Bioorg Med Chem Lett, 2002).

Assay: Lethal dose was evaluated against flea
Details: pulicinae; call rule not given here

Compound	LD90
C=C(C)[C@H]1Cc2c3c(cc4c5c(n1c24)[C@@]1(C)[C@@H](CC[C@H]2[C@](C)(/C=C/C=C(\C)C(=O)OC)[C@@H](O)CC[C@@]21C)C5)C1=CC(C)(C)OC(C)(C)[C@H]1[C@@H]3O	100 p.p.m.
C=C(C)[C@H]1C(=O)c2c3c(cc4c5c(n1c24)[C@@]1(C)[C@@H](CC[C@H]2[C@](C)(/C=C/C=C(\C)C(=O)OC)[C@@H](O)CC[C@@]21C)C5)C1=CC(C)(C)OC(C)(C)[C@H]1[C@@H]3O	10 p.p.m.
C=C(C)[C@H]1Cc2c3c(cc4c5c(n1c24)[C@@]1(C)[C@@H](CC[C@H]2[C@](C)(/C=C/C=C(\C)C(=O)[O-])[C@@H](O)CC[C@@]21C)C5)C1=CC(C)(C)OC(C)(C)[C@H]1[C@@H]3O.[Na+]	100 p.p.m.
C=C(C)[C@H]1C(=O)c2c3c(cc4c5c(n1c24)[C@@]1(C)C(CC[C@H]2[C@](C)(/C=C/C=C(\C)C(=O)O)[C@@H](O)CC[C@@]21C)C5)C1=CC(C)(C)OC(C)(C)C1[C@@H]3O (stereo partly specified) [NOD ACID A]	1 p.p.m.
C=C(C)[C@H]1C(=O)c2c3c(cc4c5c(n1c24)[C@@]1(C)[C@@H](CC[C@@H]2[C@]1(C)CC[C@]1(O)O[C@H](/C=C(\C)C(=O)O)C[C@@]21C)C5)C1=CC(C)(C)OC(C)(C)[C@H]1[C@@H]3O [NODULISPORIC ACID A1]	5 p.p.m.
C=C(C)[C@H]1C(=O)c2c3c(cc4c5c(n1c24)[C@@]1(C)[C@@H](CC[C@@H]2[C@]1(C)CC[C@]1(O)O[C@H](C(O)C(C)C(=O)O)C[C@@]21C)C5)C1=CC(C)(C)OC(C)(C)[C@H]1[C@@H]3O (stereo partly specified) [NODULISPORIC ACID A2]	10 p.p.m.
IVERMECTIN	10 p.p.m.

Assay: Lethal dose was evaluated against flea; NA means not active at 100 ppm
Assay type: ADME
Details: pulicinae

Compound	LD90
C=C(C)[C@H]1Cc2c3c(cc4c2N1C(=O)[C@@]1(C)[C@@H](CC[C@H]2[C@](C)(/C=C/C=C(\C)C(=O)OC)[C@@H](O)CC[C@@]21C)CC4=O)C1=CC(C)(C)OC(C)(C)[C@H]1[C@@H]3O	Not Active
C=C(C)[C@H]1Cc2c3c(cc4c5c(n1c24)[C@@]1(C)[C@@H](CC[C@@H]2[C@]1(C)CC[C@]1(O)O[C@H](C(O)C(C)C(=O)[O-])C[C@@]21C)C5)C1=CC(C)(C)OC(C)(C)[C@H]1[C@@H]3O.[Na+] (stereo partly specified)	Not Active
C=C(C)[C@H]1Cc2c3c(cc4c5c(n1c24)[C@@]1(C)[C@@H](CC[C@@H]2[C@]1(C)CC[C@]1(O)O[C@H](/C=C(\C)C(=O)[O-])C[C@@]21C)C5)C1=CC(C)(C)OC(C)(C)[C@H]1[C@@H]3O.[Na+]	Not Active

Assay: Lethal dose was evaluated against flea; partial activity
Assay type: ADME
Details: pulicinae

Compound	LD90
C=C(C)[C@H]1Cc2c3c(cc4c5c(n1c24)[C@@]1(C)[C@@H](CC[C@H]2[C@](C)(/C=C/C=C(\C)C(=O)OC)[C@@H](O)CC[C@@]21C)C5)C1=CC(C)(C)OC(C)(C)[C@H]1[C@@H]3O	10 p.p.m.
